From PubChem BioAssay AID1259407 (Chemical Carcinogenesis Research Information System (CCRIS), 2018)
Calls of active or inactive are those of the source. How the calls were made is not given here.

Tested on: CCRIS mutagenicity, Ames/micronucleus/aberration tests
Assay: CCRIS mutagenicity studies
[1] = Test System: AMES SALMONELLA TYPHIMURIUM, Strain/Indicator: TA98, Metabolic Activation: NONE, Method: STANDARD PLATE
[2] = Test System: AMES SALMONELLA TYPHIMURIUM, Strain/Indicator: TA98, Metabolic Activation: RAT, LIVER, S-9, AROCLOR 1254, Method: STANDARD PLATE
[3] = Test System: AMES SALMONELLA TYPHIMURIUM, Strain/Indicator: TA100, Metabolic Activation: NONE, Method: STANDARD PLATE
[4] = Test System: AMES SALMONELLA TYPHIMURIUM, Strain/Indicator: TA100, Metabolic Activation: RAT, LIVER, S-9, AROCLOR 1254, Method: STANDARD PLATE
[5] = Test System: AMES SALMONELLA TYPHIMURIUM, Strain/Indicator: TA100, Metabolic Activation: NONE, Method: PREINCUBATION
[6] = Test System: AMES SALMONELLA TYPHIMURIUM, Strain/Indicator: TA100, Metabolic Activation: RAT, LIVER, S-9, PCB, Method: PREINCUBATION
[7] = Test System: AMES SALMONELLA TYPHIMURIUM, Strain/Indicator: TA97, Metabolic Activation: NONE, Method: STANDARD PLATE
[8] = Test System: AMES SALMONELLA TYPHIMURIUM, Strain/Indicator: TA97, Metabolic Activation: RAT, LIVER, S-9, AROCLOR 1254, Method: STANDARD PLATE
[9] = Test System: AMES SALMONELLA TYPHIMURIUM, Strain/Indicator: TA1535, Metabolic Activation: NONE, Method: STANDARD PLATE
[10] = Test System: AMES SALMONELLA TYPHIMURIUM, Strain/Indicator: TA1535, Metabolic Activation: RAT, LIVER, S-9, AROCLOR 1254, Method: STANDARD PLATE
[11] = Test System: AMES SALMONELLA TYPHIMURIUM, Strain/Indicator: TA1537, Metabolic Activation: NONE, Method: STANDARD PLATE
[12] = Test System: AMES SALMONELLA TYPHIMURIUM, Strain/Indicator: TA1537, Metabolic Activation: RAT, LIVER, S-9, AROCLOR 1254, Method: STANDARD PLATE

For `CN1C[C@@H](O)c2cc3c(c4c2[C@H]1Cc1ccccc1-4)OCO3`, the mutagenic call (Test System: AMES SALMONELLA TYPHIMURIUM, Strain/Indicator: TA98, Metabolic Activation: RAT, LIVER, S-9, PHENOBARBITAL AND BETA-NAPHTHOFLAVONE, Method: PREINCUBATION) was “active; positive” and the mutagenic call (Test System: AMES SALMONELLA TYPHIMURIUM, Strain/Indicator: TA100, Metabolic Activation: RAT, LIVER, S-9, PHENOBARBITAL AND BETA-NAPHTHOFLAVONE, Method: PREINCUBATION) was “active; positive”.

With `Fc1cnc2cccc(F)c2c1` the mutagenic call (Test System: AMES SALMONELLA TYPHIMURIUM, Strain/Indicator: TA100, Metabolic Activation: RAT, LIVER, S-9, PHENOBARBITAL AND 5,6-BENZOFLAVONE, Method: PREINCUBATION) was “inactive; negative”.

In the case of `Nc1ccc(CCc2ccccc2)cc1`, the mutagenic call [1] is reported as “inactive; negative”, the mutagenic call [2] is reported as “active; positive” and the mutagenic call [3] is reported as “inactive; negative”. The mutagenic call [4] was “active; positive”.

In the case of `c1ccc2c(c1)Cc1c-2ccc2ccc3ccccc3c12`, the mutagenic call [4] is reported as “active; positive”.

In the case of `CCOc1ccc(N)cc1N`, the mutagenic call (Test System: AMES SALMONELLA TYPHIMURIUM, Strain/Indicator: TA97, Metabolic Activation: RAT, LIVER, S-9, AROCLOR 1254 (4 OR 10%), Method: STANDARD PLATE) is reported as “active; positive”, the mutagenic call (Test System: AMES SALMONELLA TYPHIMURIUM, Strain/Indicator: TA1537, Metabolic Activation: RAT, LIVER, S-9, AROCLOR 1254 (4 OR 10%), Method: STANDARD PLATE) is reported as “active; positive” and the mutagenic call (Test System: AMES SALMONELLA TYPHIMURIUM, Strain/Indicator: TA1538, Metabolic Activation: RAT, LIVER, S-9, AROCLOR 1254 (4 OR 10%), Method: STANDARD PLATE) is reported as “active; positive”.

For `Cn1c(N)nc2cc3ccccc3cc21`, the mutagenic call (Test System: AMES SALMONELLA TYPHIMURIUM, Strain/Indicator: TA98, Metabolic Activation: RAT, LIVER, S-9, AROCLOR 1254A, Method: STANDARD PLATE) was “active; positive” and the mutagenic call (Test System: AMES SALMONELLA TYPHIMURIUM, Strain/Indicator: YG1024, Metabolic Activation: RAT, LIVER, S-9, AROCLOR 1254A, Method: STANDARD PLATE) was “active; positive”.

For `[O-][n+]1ccc2cnncc2c1`, the mutagenic call (Test System: AMES SALMONELLA TYPHIMURIUM, Strain/Indicator: TA98, Metabolic Activation: NONE, Method: PREINCUBATION) was “active; positive”, the mutagenic call (Test System: AMES SALMONELLA TYPHIMURIUM, Strain/Indicator: TA98, Metabolic Activation: RAT, LIVER, S-9, PCB, Method: PREINCUBATION) was “active; positive” and the mutagenic call [5] was “inactive; negative”. For the same compound, the mutagenic call [6] was “active; positive”.

`O=c1cc(-c2ccc(O)cc2)oc2cc(O)cc(O)c12` was tested, and the mutagenic call [7] was “inactive; negative”, the mutagenic call [8] was “inactive; negative” and the mutagenic call [1] was “inactive; negative”. The mutagenic call [2] was “inactive; negative”, the mutagenic call [3] was “inactive; negative” and the mutagenic call [4] was “inactive; negative”. The mutagenic call (Test System: AMES SALMONELLA TYPHIMURIUM, Strain/Indicator: TA102, Metabolic Activation: NONE, Method: STANDARD PLATE) was “inactive; negative”, the mutagenic call (Test System: AMES SALMONELLA TYPHIMURIUM, Strain/Indicator: TA102, Metabolic Activation: RAT, LIVER, S-9, AROCLOR 1254, Method: STANDARD PLATE) was “inactive; negative” and the mutagenic call [9] was “inactive; negative”. For the same compound, the mutagenic call [10] was “inactive; negative”, the mutagenic call (Test System: AMES SALMONELLA TYPHIMURIUM, Strain/Indicator: TA1538, Metabolic Activation: NONE, Method: STANDARD PLATE) was “inactive; negative” and the mutagenic call (Test System: AMES SALMONELLA TYPHIMURIUM, Strain/Indicator: TA1538, Metabolic Activation: RAT, LIVER, S-9, AROCLOR 1254, Method: STANDARD PLATE) was “inactive; negative”. The mutagenic call (Test System: Mouse lymphoma, Strain/Indicator: L5178Y (tk+/tk-), Metabolic Activation: None, Method: Suspension/plate) was “active; positive” and the mutagenic call (Test System: Mouse lymphoma, Strain/Indicator: L5178Y (tk+/tk-), Metabolic Activation: Rat, Liver, S-9, Aroclor 1254, Method: Suspension/plate) was “active; positive”.

In the case of `COc1ccc2[nH]cc(CCNC(C)=O)c2c1`, the mutagenic call [7] is reported as “inactive; negative”, the mutagenic call [8] is reported as “inactive; negative” and the mutagenic call (Test System: AMES SALMONELLA TYPHIMURIUM, Strain/Indicator: TA97A, Metabolic Activation: NONE, Method: STANDARD PLATE) is reported as “inactive; negative”. The mutagenic call (Test System: AMES SALMONELLA TYPHIMURIUM, Strain/Indicator: TA97A, Metabolic Activation: RAT LIVER S-9, PHENOBARBITOL/BETA-NAPHTHOFLAVONE, Method: STANDARD PLATE) was “inactive; negative”, the mutagenic call [1] was “inactive; negative” and the mutagenic call (Test System: AMES SALMONELLA TYPHIMURIUM, Strain/Indicator: TA98, Metabolic Activation: RAT LIVER S-9, PHENOBARBITOL/BETA-NAPHTHOFLAVONE, Method: STANDARD PLATE) was “inactive; negative”. For the same compound, the mutagenic call [2] was “inactive; negative”, the mutagenic call [5] was “inactive; negative” and the mutagenic call [3] was “inactive; negative”. For the same compound, the mutagenic call (Test System: AMES SALMONELLA TYPHIMURIUM, Strain/Indicator: TA100, Metabolic Activation: RAT LIVER S-9, PHENOBARBITOL/BETA-NAPHTHOFLAVONE, Method: PREINCUBATION) was “inactive; negative”, the mutagenic call (Test System: AMES SALMONELLA TYPHIMURIUM, Strain/Indicator: TA100, Metabolic Activation: RAT LIVER S-9, PHENOBARBITOL/BETA-NAPHTHOFLAVONE, Method: STANDARD PLATE) was “inactive; negative” and the mutagenic call [4] was “inactive; negative”. The mutagenic call [9] was “inactive; negative”, the mutagenic call (Test System: AMES SALMONELLA TYPHIMURIUM, Strain/Indicator: TA1535, Metabolic Activation: RAT LIVER S-9, PHENOBARBITOL/BETA-NAPHTHOFLAVONE, Method: STANDARD PLATE) was “inactive; negative” and the mutagenic call (Test System: E.COLI, Strain/Indicator: WP2/UVRA, Metabolic Activation: NONE, Method: STANDARD PLATE) was “inactive; negative”. The mutagenic call (Test System: E.COLI, Strain/Indicator: WP2/UVRA, Metabolic Activation: RAT LIVER S-9, PHENOBARBITOL/BETA-NAPHTHOFLAVONE, Method: STANDARD PLATE) was “inactive; negative”.

With `O=C(O[C@@H]1Cc2c(O)cc(O)cc2O[C@@H]1c1cc(O)c(O)c(O)c1)c1cc(O)c(O)c(O)c1` the mutagenic call (Test System: Ames Salmonella typhimurium, Strain/Indicator: TA102, Metabolic Activation: None, Method: Preincubation) was “inactive; negative” and the mutagenic call (Test System: Ames Salmonella typhimurium, Strain/Indicator: TA102, Metabolic Activation: Rat, Liver, S-9, Aroclor 1254 in 0.154 M KCl, Method: Preincubation) was “inactive; negative”.

In the case of `O=S(=O)(O)c1cccc2cccnc12`, the mutagenic call [1] is reported as “inactive; negative”, the mutagenic call [2] is reported as “inactive; negative” and the mutagenic call [3] is reported as “inactive; negative”. The mutagenic call [4] was “inactive; negative”, the mutagenic call [9] was “inactive; negative” and the mutagenic call [10] was “inactive; negative”. The mutagenic call [11] was “inactive; negative” and the mutagenic call [12] was “inactive; negative”.

In the case of `O=S(=O)(Nc1ccc(Cl)cc1)c1cccc2cccnc12`, the mutagenic call [1] is reported as “inactive; negative”, the mutagenic call [2] is reported as “inactive; negative” and the mutagenic call [3] is reported as “inactive; negative”. The mutagenic call [4] was “inactive; negative”, the mutagenic call [9] was “inactive; negative” and the mutagenic call [10] was “inactive; negative”. The mutagenic call [11] was “inactive; negative” and the mutagenic call [12] was “inactive; negative”.

For `C[C@@H]1C[C@]2(O[C@@H]2C)C(=O)O[C@@H]2CCN(C)C/C=C(/COC(=O)[C@]1(C)O)C2=O`, the mutagenic call (Test System: AMES SALMONELLA TYPHIMURIUM, Strain/Indicator: TA100, Metabolic Activation: HAMSTER, LIVER, S-9, PCB, Method: PREINCUBATION) was “inactive; negative; by authors criteria results are positive”, the mutagenic call [6] was “active; positive” and the mutagenic call (Test System: UDS RAT HEPATOCYTES, Strain/Indicator: THY INCORP, Metabolic Activation: NONE, Method: AUTORADIOGRAPHY) was “active; positive”.
